The values below come from publication PMC10906223 (JCI Insight, 2024).

Values joined by “and” are separate entries in the source; they are usually repeats but may differ in a detail not shown here. Identical values can stand only once.

In series [1] the test system is murine dispersed islet cells. As to the kind of experiment: Glucagon secretion from murine dispersed islet cells. In kind it is cell-based, mouse. Conditions: for Secretion of glucagon: Rhy (2.5 µM) alone, listed as Rhy. The method, then:
(§1) Pancreata of nondiabetic C57BL/6J mice were digested using collagenase P (Roche Diagnostics, catalog 11213873001), and islets were manually picked up using a stereomicroscope (ZEISS Stemi 305). […] Isolated mouse islets or provided human islets were dispersed as described ([28]). Briefly, 100–120 islets were washed 2 times using modified HBSS, then dispersed in 600 μL Accutase (Innovative Cell Technologies, catalog AT-104) by gently pipetting up and down for 7 minutes at 37°C. […] Following refreshing of KRBH, cells were dispensed in 8 microfuge tubes (2,000 cells/tube) and treated with WCDD301, preclustered Ephrin-A5 Fc, or preclustered Fc in the presence or absence of the competitive inhibitor of EphA4 receptor, rhyncophylline ([60]) (MilliporeSigma, catalog SML2345). In the presence or absence of these effectors, secretion assay was performed sequentially as shown in Supplemental Table 5. […] Preclustering of Ephrin-A5 Fc was done by mixing Ephrin-A5 Fc or Fc alone (BioLegend, catalog 790102) with anti-Fc antibody (Invitrogen, catalog A16086) (1:10 molar ratio) 20 minutes before treatment ([62]). […] Shedding of cleaved EphA4 was measured from the cell culture medium. Experiments were performed by dispersion of 200 islets, and EphA4 levels in media were measured by EphA4 ELISA (ABclonal, catalog RK06572).

A short description of series [2]: Microsomal stability assay, human liver microsomes. In kind it is in vitro ADME. Conditions: for Remaining in hepatic microsomes (100 at 0 min): human microsomes, Figure 5C; for Hepatic clearance: predicted from microsomal data. The method, then: (§2) A total of 445 μL of the working solution was transferred into prewarmed incubation plates for treated (T60) and control (NCF60) measurements. After preincubation (10 minutes at 37°C with constant shaking), 54 μL was transferred to the blank plate, followed by 6 μL of NADPH and 180 μL quenching solution. In parallel, 5 μL of WCDD301 (100 μM) was added into incubation plates (T60 and NCF60) containing microsomes and mixed thoroughly (3 times). For the NCF60 plate, 50 μL of buffer was added, mixed (thoroughly, 3 times), shaken, and incubated at 37°C for 60 minutes. In the quenching plate T0, quenching solution (180 μL) and NADPH cofactor (6 μL) were added. For T60 plate, 54 μL of the mixture was placed into the quenching plate (for T0 point), followed by adding 44 μL NADPH cofactor with shaking incubation at 37°C for 60 minutes. Quenching solution (180 μL) was added to quenching plates at 5, 15, 30, 45, and 60 minutes, and 60 μL of sample was transferred from T60 plate per time point to the quenching plates. For the NCF60 plates, 60 μL sample from the NCF60 incubation plate was transferred to the quenching plate (containing quenching solution) at the 60-minute time point. After plates were shaken for 10 minutes and centrifuged (1,750g, 20 minutes at 4°C), 80 μL of the supernatant was transferred into 240 μL HPLC water for LC-MS/MS analysis. The following first-order kinetic equation was used to calculate half-life (T1/2): [drawing 3]; when
(§3) Then, intrinsic clearance [CLint (microsomal; mic)] and hepatic clearance [CLint (liver)] were predicted using the following equations ([66]): […]

Series [3] can be described thus: Microsomal stability assay, CD-1 mouse liver microsomes. In kind it is in vitro ADME. Conditions: for Remaining in hepatic microsomes (100 at 0 min): mouse microsomes, Figure 5D; for Hepatic clearance: mouse, predicted from microsomal data. The method, then:
as §2, §3

A short description of series [4]: Plasma stability assay, human plasma. In kind it is in vitro ADME. Conditions: for Ln (% Remaining): human plasma, 37°C, Figure 5A. The method, then: (§4) Pooled frozen plasma of CD-1 mice (n = 20; catalog MSE00PLK2M2N, Beijing Vital River Laboratory Animal Technology) or humans (n = 6, catalog […]2P2N, Bioreclamation IVT), equal numbers of males and females, was thawed in a 37°C water bath, and residual clots were removed by centrifugation (500g for 5 minutes). Plasma (98 μL) was aliquoted in each well of 96-well reaction plates using an Apricot automation workstation. WCDD301 (100 μM) or propantheline bromide (100 μM, as a positive control) was added (2 μL/well) to sets of wells assigned to blank or time points (T0, T10, T30, T60, and T120 minutes) and incubated at 37°C. At each time point, the reaction was stopped by adding stop solution (500 μL; a mixture of 200 ng/mL of tolbutamide and labetalol in acetonitrile), mixed thoroughly, sealed, shaken (20 minutes), and centrifuged (1,750g, 4°C, 20 minutes). A total of 150 μL of the supernatant from each well of the reaction plate was transferred to its corresponding bioanalysis plate for LC-MS/MS analysis. The remaining level (%) of the WCDD301 was calculated using the following equation: remaining (%) = (PAR at each time point/PAR at T0) × 100. PAR stands for the peak area ratio of the WCDD301 versus internal standard.

A short description of series [5]: Plasma stability assay, CD-1 mouse plasma. Conditions: for Ln (% Remaining): mouse plasma, 37°C, Figure 5B. In kind it is in vitro ADME. The method, then: as §4
Series [6] concerns human donor dispersed islet cells. Nature of the series: Glucagon secretion from healthy human donor dispersed islet cells. Conditions: human α cells; range of concentrations; Supplemental Figure 1A. In kind it is cell-based. The method, then: as §1
The Integrated Islet Distribution Program provided us human donor islets with their characteristics (Supplemental Table 6). Islets were centrifuged at 500g for 3 minutes, resuspended in CMRL 1066 medium (Gibco, catalog 1150-037) containing 11 mM glucose, and rested in an incubator overnight.
For the hormone secretion assay, islets or dispersed islet cells were adapted in KRBH buffer containing 11 mM glucose for 1 hour. Then, after 2 washes in HBSS containing 11 mM glucose, islets or cells were treated in the following sequential order in the presence or absence of WCDD301: incubation in KRBH (1 mM glucose, 30 minutes) followed by medium collection, incubation in KRBH (11 mM glucose, 30 minutes) followed by medium collection.

Take `N=C(N)NCCC[C@H](N)C(=O)O` [Arginine, reference compound]: the “Effect on glucagon secretion” value in series [1] (Arginine 25 mM alone, Supplemental Figure 2) is “significantly increased glucagon secretion”.

On to `CC[C@H]1CN2CC[C@]3(C(=O)Nc4ccccc43)[C@@H]2C[C@@H]1/C(=C\OC)C(=O)OC` [rhyncophylline, reference compound], for which the Secretion of glucagon in series [1] (Glucose (1 mM), Figure 1H) was 0.87 and 0.81 and 0.85 and 0.79 and 0.82; in series [1] (Glucose (11 mM), Figure 1H), 0.41 and 0.5 and 0.38 and 0.45 and 0.4. Besides, the “Effect of EphA4 inhibition on suppression of glucagon secretion” value in series [1] (competitive inhibitor of EphA4, Figure 1H) is “abolished the suppressive effect of both Ephrin-A5 and 1.5 μM WCDD301 on glucagon secretion”.

As usually defined, the half-life is how long it takes for the measured level to halve. In series [2] (human), `O=C(O)Cc1ccccc1Nc1c(Cl)cccc1Cl` [Diclofenac] yielded an Intrinsic microsomal clearance of 313.9 µL/min/mg. Also, the “Remaining in hepatic microsomes (100 at 0 min)” value (“Remaining in hepatic microsomes” for short) amounted to 48.7 in series [2] (5 min); 9.3 in series [2] (15 min); 0.9 in series [2] (30 min); 85.5 in series [3] (5 min); 77.8 in series [3] (15 min); 58.6 in series [3] (30 min). Further, the “Remaining in hepatic microsomes” value came to 52.8 in series [3] (45 min) and 39.3 in series [3] (60 min). Moreover, the half-life at 1 µM in series [2] (human, liver microsomes) came to 4.4 min. Also, the values for the Hepatic clearance in series [2] (human) and in series [3] were 282.5 mL/min/kg and 115.5 mL/min/kg, respectively.

For `CC(C)[N+](C)(CCOC(=O)C1c2ccccc2Oc2ccccc21)C(C)C` [Propantheline, propantheline bromide], the half-life at 2 µM was determined as 9.8 min in series [4] (both sexes, human, plasma) and 34.3 min in series [5] (both sexes, CD-1, mouse, plasma). Besides, the “Ln (% Remaining)” value in series [4] (10 min) is listed as -0.39; in series [4] (30 min), -2.06; in series [4] (60 min), -4.13; in series [5] (10 min), -0.31; in series [5] (30 min), -0.9; in series [5] (60 min), -1.58. In addition, in series [5] (120 min), the “Ln (% Remaining)” value is recorded as -2.45.

In series [2] (human), `C[C@]12CC[C@H]3[C@@H](CCC4=CC(=O)CC[C@@]43C)[C@@H]1CC[C@@H]2O` [Testosterone] yielded an Intrinsic microsomal clearance of 95.6 µL/min/mg. The same compound showed a Microsomal half-life in series [2] (human) of 14.5 min. Further, the “Remaining in hepatic microsomes” value in series [2] (5 min) is on record as 78.1; in series [2] (15 min) it was 33; in series [2] (30 min), 12.9; in series [2] (45 min) it was 8.4; in series [2] (60 min) it was 6.4; in series [3] (5 min), 43.1. Moreover, the entries for the “Remaining in hepatic microsomes” value in series [3] (15 min) and in series [3] (30 min) were 11.2 and 2, respectively. Besides, the figures for the Hepatic clearance in series [2] (human) and in series [3] were 86 mL/min/kg and 1018.5 mL/min/kg, respectively. The half-life at 1 µM in series [3] (CD-1, mouse, liver microsomes) was found to be 5.4 min. Moreover, in series [3] (CD-1, mouse, liver microsomes, read-out: Intrinsic microsomal clearance), the microsomal CLint at 1 µM turned out to be 257 µL/min/mg.

As for `COc1cc2nc(N3CCN(C(=O)C4COc5ccccc5O4)CC3)nc(N)c2cc1OC` (centres unmarked) [Doxazosin, reference compound], the “Effect on glucagon secretion” value in series [1] (mouse α cells, range of concentrations, Supplemental Figure 1B-E) is “increased glucagon secretion”; in series [6], “increased glucagon secretion”.
